One assay has as its system tuberculostatic. The following applies: in vitro (J. Chem. Soc., 1956, 713-16); cited from earlier work.
The subject of assay [1] is central nervous system activity in mice. As to the kind of experiment: Neuropharmacological Profile. The format is in vivo, mouse (white male Carworth Farm Strain CF-1). The following applies: 300,100,30,10 mg/kg intraperitoneal. On the procedure:
The central nervous system activity of certain of the preferred compounds in accordance with the present invention were determined using the following neuropharmacological profile assay procedures.
White male mice of the Carworth Farm Strain (CF-1) weighing 18-22 grams were used in these determinations. […] Intraperitoneal injections were administered in logarithmic progression and sequentially. The dose levels employed routinely are 10, 30, 100, and 300 mg/kg, using four male mice at each dose level. Since this test was conducted in a sequential manner, the first dose administered was at 300 mg/kg. The mice were injected at this dose level and observed for gross changes produced by the drug, such as behavioral, neurological, autonomic, and toxic effects.
The animals were observed continuously for one hour and if no signs of pharmacological or toxicological activity were present at the end of the first hour, they were intermittently checked for activity every fifteen minutes thereafter for two consecutive hours. […] Subsequent dose levels below 300 mg/kg were not administered in this case. Alternatively, if demonstrable pharmacological changes occurred within the first three hours after administration of the drug at 300 mg/kg, the subsequent doses were administered and the animals observed for changes in overt behavior. The observation period begins immediately following the injection and the animals are then continuously observed for three hours and intermittently checked thereafter for forty-eight hours. The animals were observed and signs and symptoms of pharmacological activity were recorded continuously until no further symptoms developed and until the symptoms that had appeared were no longer present. […] It was very important that the animals were free to move about for evaluation of spacial orientation, alertness, and spontaneous motor activity. The animals were systematically observed and manipulated to measure the onset, peak effect, duration and character of drug action.
The major characteristics observed relative to central nervous system activity for the compounds indicated are summarized in the following Table IV.

Assay [2] has as its system phenylquinone writhing in mice. The assay can be described thus: Phenylquinone Writhing Assay (analgesia). The following applies: Mus musculus, po, read-out: Phenylquinone Writhing Assay (% Control), percent analgesia; for responders at 15 mg/kg: 15 mg/kg oral. Format: in vivo, mouse (Carworth CF1 male mice). The method in brief:
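Male CF1 mice (ten per group) dosed orally in 0.25% methylcellulose, then challenged i.p. with 0.02% phenylquinone at 15, 30, 60 or 120 min post-dose. Mice showing no writhing over 10 min count as protected; percent analgesia = number protected ×10.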
On the technique in general: In writhing tests, fewer writhes than in controls are read as antinociception.

A further assay relates to antihypertensive. The following applies: Burger, Medicinal Chemistry, 3rd Ed., 1027; cited from earlier work.
Assay [3] concerns carrageenin-induced edema in the hind paw of a rat. The assay can be described thus: Carrageenin Assay (carrageenin-induced edema, hind paw). The format is in vivo, rat (male, Long Evans strain). The following applies: Rattus norvegicus, 1 h before carrageenin, edema at 3 h, compared to phenylbutazone control values, read-out: % Reduction of Edema. The method in brief:
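Male Long Evans rats (130-200 g) dosed orally 1 h before intraplantar 0.05 ml 1.0 percent carrageenin into left hind paw. Edema volume by water-displacement differential paw volume at 3 h; expressed as percent reduction versus phenylbutazone control.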

The test system of assay [4] is Spontaneously hypertensive rats. As to the kind of experiment: SHR Assay (anti-hypertensive). The format is in vivo, rat (spontaneously hypertensive). The following applies: rat, in vivo. On the procedure: Spontaneously hypertensive rats, 12 to 16 weeks of age, were used in this assay. Systolic blood pressures were determined by the tail cuff method, utilizing capacitance transducers for the detection of pressure, an aneroid manometer for measuring pressure, and an oscilloscope for visualizing the disappearance and/or appearance of the pressure pulse. Heart rate was measured by a biotachometer. Groups of five rats having systolic blood pressures of 170 mmHg or greater were chosen and the test compounds administered at the doses indicated below (oral) as a solution or suspension in 0.25% methylcellulose (MC) at a volume of 5 ml/kg. One group served as the control and received the vehicle. Twenty-four hours after dosing, systolic blood pressure and heart rate were recorded. A second dose of compound was administered and blood pressure and heart rate determined at 4 and 24 hours after the second dose.

Assay [5] concerns adjuvant-induced arthritis, hind paw of the rat. As to the kind of experiment: Adjuvant-Arthritis Assay. The format is in vivo.

Where two headings read alike, the source gives them in different places.

Consider `Cc1nnc(S)nc1C` [3-mercapto-5,6-dimethyl-1,2,4-triazine], for which the tuberculostatic activity result in the assay with tuberculostatic is “tuberculostatic in vitro”.

On to `NNc1nncc(-c2ccccc2)n1` [Example 3, 3-hydrazino-5-phenyl-1,2,4-triazine], for which the “CNS Activity” value in assay [1] is recorded as “Antidepressant”. For the same compound, the responders at 100 mg/kg in assay [2] (0.25 h, 100 mg/kg oral, 15 Min.) is 100%. In addition, the responders at 30 mg/kg in assay [2] (0.5 h, 30 mg/kg oral, 30 Min.) was found to be 30%. Further, the responders at 70 mg/kg in assay [2] (0.5 h, 70 mg/kg oral, 30 Min.) came out at 90%. In the assay on antihypertensive, the antihypertensive activity result is reported as “moderately active antihypertensive agent”. Also, the inhibition in vivo at 40 mg/kg in assay [3] (40 mg/kg oral) was found to be 55%.

In the case of `O=C(NNc1nncc(-c2ccccc2)n1)C(F)(F)F` [Example 7, 3-trifluoroacetyl hydrazino-5-phenyl-1,2,4-triazine], the responders at 15 mg/kg in assay [2] (0.25 h, 15 Min.) came to 50%; in assay [2] (1 h, 60 Min), 10%. Also, in assay [4], the “duration of activity (hypotensive)” value was “long duration of activity”. Also, in assay [4], the “onset of action (hypotensive)” value was “advantageous rapid onset of action”. The inhibition in vivo at 150 mg/kg in assay [3] (150 mg/kg oral) is 41%. The “Adjuvant-Arthritis Assay (% Reduction)” value was 30% in assay [5] (50 mg/kg oral once daily, Day 3, developing disease); 30% in assay [5] (50 mg/kg oral once daily, Day 10, developing disease); 39% in assay [5] (50 mg/kg oral once daily, Day 17, developing disease); 4% in assay [5] (50 mg/kg oral, Day 20, established disease); 24% in assay [5] (50 mg/kg oral, Day 27, established disease); 29% in assay [5] (50 mg/kg oral, Day 31, established disease).

These data come from patent US4157392A, “Pharmacologically active substituted 1,2,4-triazines” (Diamond Shamrock Corporation, priority 1978, dated 1979).
